Laboratory results reported in ChEMBL document CHEMBL1145498, “A systematic interaction map of validated kinase inhibitors with Ser/Thr kinases” (Proc Natl Acad Sci U S A, 2007).

Tests used:
[1] = target: Dual specificity protein kinase CLK2 (Homo sapiens) (UniProt P49760)
[2] = target: Serine/threonine-protein kinase pim-2 (Homo sapiens, UniProt Q9P1W9)
[3] = target: STE20-like serine/threonine-protein kinase (Homo sapiens) (UniProt Q9H2G2)
[4] = target: Calcium/calmodulin-dependent protein kinase type II subunit alpha (Homo sapiens) (UniProt Q9UQM7)
[5] = target: Glycogen synthase kinase-3 beta (Homo sapiens, UniProt P49841)
[6] = target: T1, Serine/threonine-protein kinase Nek2 (Homo sapiens) (UniProt P51955)
T1 sequence (whole entry): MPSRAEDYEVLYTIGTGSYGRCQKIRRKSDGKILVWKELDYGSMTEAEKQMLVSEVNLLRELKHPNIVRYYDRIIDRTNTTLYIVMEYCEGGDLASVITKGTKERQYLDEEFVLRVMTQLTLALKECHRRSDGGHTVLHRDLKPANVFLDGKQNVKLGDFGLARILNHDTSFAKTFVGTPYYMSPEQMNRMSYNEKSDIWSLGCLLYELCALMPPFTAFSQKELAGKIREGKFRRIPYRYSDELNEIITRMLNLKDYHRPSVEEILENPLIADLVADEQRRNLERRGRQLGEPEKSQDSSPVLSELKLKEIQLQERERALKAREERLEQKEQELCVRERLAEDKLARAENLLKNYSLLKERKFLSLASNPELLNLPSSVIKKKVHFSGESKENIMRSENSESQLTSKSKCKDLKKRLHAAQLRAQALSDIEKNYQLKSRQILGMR

[7] = target: Ribosomal protein S6 kinase alpha-3 (Homo sapiens) (UniProt P51812)
[8] = target: Cyclin-dependent kinase 16 (Homo sapiens) (UniProt Q00536)
[9] = target: T2, Myotonin-protein kinase (Homo sapiens) (UniProt Q09013)
T2 sequence (whole entry): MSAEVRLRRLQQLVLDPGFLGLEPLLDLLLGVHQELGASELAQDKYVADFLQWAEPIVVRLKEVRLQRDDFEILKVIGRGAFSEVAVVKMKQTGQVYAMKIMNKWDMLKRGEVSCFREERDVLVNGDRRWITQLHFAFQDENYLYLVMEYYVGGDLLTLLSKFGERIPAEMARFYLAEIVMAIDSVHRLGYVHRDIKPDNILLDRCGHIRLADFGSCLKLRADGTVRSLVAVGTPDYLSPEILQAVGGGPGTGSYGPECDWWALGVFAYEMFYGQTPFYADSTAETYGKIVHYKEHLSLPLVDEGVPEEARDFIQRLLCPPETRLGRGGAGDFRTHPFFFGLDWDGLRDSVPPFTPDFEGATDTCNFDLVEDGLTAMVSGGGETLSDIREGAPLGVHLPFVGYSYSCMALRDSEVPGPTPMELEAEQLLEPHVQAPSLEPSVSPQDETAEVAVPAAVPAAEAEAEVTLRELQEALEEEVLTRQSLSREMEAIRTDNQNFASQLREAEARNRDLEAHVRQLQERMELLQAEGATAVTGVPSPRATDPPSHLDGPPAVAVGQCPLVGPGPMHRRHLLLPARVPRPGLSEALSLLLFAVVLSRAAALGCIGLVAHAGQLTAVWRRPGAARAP

[10] = target: Serine/threonine-protein kinase Chk2 (Homo sapiens, UniProt O96017)
[11] = target: Casein kinase I isoform gamma-2 (Homo sapiens) (UniProt P78368)
[12] = target: Serine/threonine-protein kinase 38 (Homo sapiens) (UniProt Q15208)
[13] = target: Calcium/calmodulin-dependent protein kinase kinase 2 (Homo sapiens, UniProt Q96RR4)
[14] = target: Calcium/calmodulin-dependent protein kinase type 1G (Homo sapiens) (UniProt Q96NX5)
[15] = target: Dual specificity mitogen-activated protein kinase kinase 2 (Homo sapiens, UniProt P36507)
[16] = target: Serine/threonine-protein kinase PLK1 (Homo sapiens) (UniProt P53350)
[17] = target: Cyclin-dependent kinase 6 (Homo sapiens) (UniProt Q00534)
[18] = target: Serine/threonine-protein kinase pim-1 (Homo sapiens) (UniProt P11309)
[19] = target: Calcium/calmodulin-dependent protein kinase type 1D (Homo sapiens) (UniProt Q8IU85)
[20] = target: Tyrosine-protein kinase JAK1 (Homo sapiens) (UniProt P23458)
[21] = target: Dual specificity protein kinase CLK1 (Homo sapiens) (UniProt P49759)
[22] = target: Dual specificity protein kinase CLK3 (Homo sapiens) (UniProt P49761)
[23] = target: Serine/threonine-protein kinase 26 (Homo sapiens) (UniProt Q9P289)
[24] = target: Calcium/calmodulin-dependent protein kinase type II subunit delta (Homo sapiens) (UniProt Q13557)
[25] = target: Casein kinase I isoform gamma-1 (Homo sapiens) (UniProt Q9HCP0)
[26] = target: T3, Lymphokine-activated killer T-cell-originated protein kinase (Homo sapiens) (UniProt Q96KB5)
T3 sequence (whole entry): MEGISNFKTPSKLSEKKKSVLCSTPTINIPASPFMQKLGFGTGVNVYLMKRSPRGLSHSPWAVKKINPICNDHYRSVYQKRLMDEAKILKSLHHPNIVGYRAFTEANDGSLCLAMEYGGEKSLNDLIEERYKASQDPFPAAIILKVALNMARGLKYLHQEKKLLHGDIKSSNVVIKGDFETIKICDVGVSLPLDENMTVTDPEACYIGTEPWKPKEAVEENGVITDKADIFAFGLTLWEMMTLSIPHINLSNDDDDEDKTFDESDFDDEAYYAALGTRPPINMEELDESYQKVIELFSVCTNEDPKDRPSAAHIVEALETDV

Cyclin-dependent kinase 6 (Homo sapiens), sequence (Q00534 whole entry): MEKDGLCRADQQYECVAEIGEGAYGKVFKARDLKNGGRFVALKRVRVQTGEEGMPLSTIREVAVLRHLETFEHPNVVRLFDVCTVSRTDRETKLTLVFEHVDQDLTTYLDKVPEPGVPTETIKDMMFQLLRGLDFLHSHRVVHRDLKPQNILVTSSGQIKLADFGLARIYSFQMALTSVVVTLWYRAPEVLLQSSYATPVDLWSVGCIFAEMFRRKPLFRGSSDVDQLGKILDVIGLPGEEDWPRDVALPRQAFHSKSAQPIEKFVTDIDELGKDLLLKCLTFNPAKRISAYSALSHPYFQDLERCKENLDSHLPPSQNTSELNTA
Serine/threonine-protein kinase pim-1 (Homo sapiens), sequence (P11309 whole entry, looked up): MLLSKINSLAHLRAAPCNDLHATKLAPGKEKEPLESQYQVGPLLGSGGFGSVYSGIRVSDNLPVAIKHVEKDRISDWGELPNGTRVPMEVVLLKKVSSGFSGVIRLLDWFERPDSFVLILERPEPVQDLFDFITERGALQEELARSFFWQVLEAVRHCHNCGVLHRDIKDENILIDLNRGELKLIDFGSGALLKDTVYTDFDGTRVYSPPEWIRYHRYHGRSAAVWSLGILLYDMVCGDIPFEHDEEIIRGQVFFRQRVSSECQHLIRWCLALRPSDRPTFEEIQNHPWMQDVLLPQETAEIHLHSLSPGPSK
Cyclin-dependent kinase 16 (Homo sapiens), sequence (Q00536 whole entry): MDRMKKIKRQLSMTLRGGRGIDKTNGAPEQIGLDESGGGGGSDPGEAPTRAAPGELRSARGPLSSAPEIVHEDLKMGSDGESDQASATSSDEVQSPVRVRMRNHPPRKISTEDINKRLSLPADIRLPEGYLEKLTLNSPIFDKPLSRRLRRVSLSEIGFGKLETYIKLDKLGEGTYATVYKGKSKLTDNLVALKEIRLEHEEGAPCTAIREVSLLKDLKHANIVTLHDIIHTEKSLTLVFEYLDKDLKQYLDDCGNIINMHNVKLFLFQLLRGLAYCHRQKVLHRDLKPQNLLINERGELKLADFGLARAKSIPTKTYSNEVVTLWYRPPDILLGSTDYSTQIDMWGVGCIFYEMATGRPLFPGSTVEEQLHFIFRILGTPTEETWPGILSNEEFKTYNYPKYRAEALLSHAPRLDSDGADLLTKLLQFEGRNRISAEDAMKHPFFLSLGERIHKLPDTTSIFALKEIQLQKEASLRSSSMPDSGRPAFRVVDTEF
Calcium/calmodulin-dependent protein kinase type 1D (Homo sapiens), sequence (Q8IU85 whole entry, looked up): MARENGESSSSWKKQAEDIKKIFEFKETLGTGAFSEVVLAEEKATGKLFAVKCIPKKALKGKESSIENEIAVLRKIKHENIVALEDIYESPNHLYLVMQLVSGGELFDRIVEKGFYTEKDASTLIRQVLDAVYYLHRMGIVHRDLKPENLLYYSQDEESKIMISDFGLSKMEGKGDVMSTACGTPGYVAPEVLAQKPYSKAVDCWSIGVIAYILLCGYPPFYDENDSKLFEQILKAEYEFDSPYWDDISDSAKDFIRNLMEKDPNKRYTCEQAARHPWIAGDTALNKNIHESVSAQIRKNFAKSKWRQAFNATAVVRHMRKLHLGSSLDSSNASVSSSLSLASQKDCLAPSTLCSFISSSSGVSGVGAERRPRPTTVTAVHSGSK
Casein kinase I isoform gamma-1 (Homo sapiens), sequence (Q9HCP0 whole entry, looked up, canonical isoform): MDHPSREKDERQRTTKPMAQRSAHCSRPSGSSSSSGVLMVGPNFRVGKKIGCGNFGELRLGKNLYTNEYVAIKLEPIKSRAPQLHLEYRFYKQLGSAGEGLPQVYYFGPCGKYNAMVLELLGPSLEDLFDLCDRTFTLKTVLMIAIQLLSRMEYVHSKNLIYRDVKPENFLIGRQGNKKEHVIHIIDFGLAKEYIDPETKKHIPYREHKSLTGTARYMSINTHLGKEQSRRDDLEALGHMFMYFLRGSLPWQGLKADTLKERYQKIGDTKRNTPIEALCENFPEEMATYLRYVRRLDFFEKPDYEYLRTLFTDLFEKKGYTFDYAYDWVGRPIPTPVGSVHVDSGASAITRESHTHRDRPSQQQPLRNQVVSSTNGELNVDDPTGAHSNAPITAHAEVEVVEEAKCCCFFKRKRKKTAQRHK
Dual specificity protein kinase CLK3 (Homo sapiens), sequence (P49761 whole entry, looked up): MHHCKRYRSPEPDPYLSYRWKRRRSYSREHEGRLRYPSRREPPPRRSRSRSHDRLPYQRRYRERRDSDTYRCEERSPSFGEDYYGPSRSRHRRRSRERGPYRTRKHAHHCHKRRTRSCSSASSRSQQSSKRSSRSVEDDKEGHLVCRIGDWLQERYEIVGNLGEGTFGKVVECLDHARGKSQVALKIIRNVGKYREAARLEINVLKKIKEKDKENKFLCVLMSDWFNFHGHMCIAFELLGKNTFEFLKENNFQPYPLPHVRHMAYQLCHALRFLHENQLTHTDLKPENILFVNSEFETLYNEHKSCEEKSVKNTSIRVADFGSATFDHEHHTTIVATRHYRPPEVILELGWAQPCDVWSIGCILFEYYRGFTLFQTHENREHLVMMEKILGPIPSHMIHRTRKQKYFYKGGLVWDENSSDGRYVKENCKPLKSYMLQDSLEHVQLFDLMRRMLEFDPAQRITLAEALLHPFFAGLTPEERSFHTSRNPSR
Serine/threonine-protein kinase Chk2, sequence (O96017 whole entry, canonical isoform): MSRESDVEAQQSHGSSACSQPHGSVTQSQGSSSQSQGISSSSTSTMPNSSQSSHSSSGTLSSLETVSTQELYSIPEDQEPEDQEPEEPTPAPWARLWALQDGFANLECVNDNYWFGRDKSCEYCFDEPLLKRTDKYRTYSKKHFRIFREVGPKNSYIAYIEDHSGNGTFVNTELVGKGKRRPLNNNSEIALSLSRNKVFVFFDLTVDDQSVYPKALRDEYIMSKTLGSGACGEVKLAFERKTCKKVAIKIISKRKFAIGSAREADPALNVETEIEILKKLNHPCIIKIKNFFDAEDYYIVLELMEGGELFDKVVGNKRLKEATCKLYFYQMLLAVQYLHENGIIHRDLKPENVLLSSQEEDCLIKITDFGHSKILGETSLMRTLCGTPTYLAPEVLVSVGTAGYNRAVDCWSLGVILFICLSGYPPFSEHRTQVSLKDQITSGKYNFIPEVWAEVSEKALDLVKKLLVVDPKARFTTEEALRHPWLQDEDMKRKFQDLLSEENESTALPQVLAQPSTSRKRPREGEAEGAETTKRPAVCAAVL
Dual specificity protein kinase CLK2 (Homo sapiens), sequence (P49760 whole entry, looked up): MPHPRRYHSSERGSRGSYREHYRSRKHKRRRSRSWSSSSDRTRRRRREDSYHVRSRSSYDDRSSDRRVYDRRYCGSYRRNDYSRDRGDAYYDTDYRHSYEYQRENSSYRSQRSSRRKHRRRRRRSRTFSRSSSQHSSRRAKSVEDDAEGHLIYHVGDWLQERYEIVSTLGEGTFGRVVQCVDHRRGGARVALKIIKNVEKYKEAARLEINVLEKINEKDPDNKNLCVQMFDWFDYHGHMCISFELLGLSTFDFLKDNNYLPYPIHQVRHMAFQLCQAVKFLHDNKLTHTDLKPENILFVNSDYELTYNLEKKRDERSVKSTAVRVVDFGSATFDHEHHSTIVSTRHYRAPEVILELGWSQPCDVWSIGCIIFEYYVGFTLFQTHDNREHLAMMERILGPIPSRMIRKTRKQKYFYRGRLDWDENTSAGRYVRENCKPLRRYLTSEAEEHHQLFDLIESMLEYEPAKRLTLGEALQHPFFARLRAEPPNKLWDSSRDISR
Casein kinase I isoform gamma-2 (Homo sapiens), sequence (P78368 whole entry, looked up, canonical isoform): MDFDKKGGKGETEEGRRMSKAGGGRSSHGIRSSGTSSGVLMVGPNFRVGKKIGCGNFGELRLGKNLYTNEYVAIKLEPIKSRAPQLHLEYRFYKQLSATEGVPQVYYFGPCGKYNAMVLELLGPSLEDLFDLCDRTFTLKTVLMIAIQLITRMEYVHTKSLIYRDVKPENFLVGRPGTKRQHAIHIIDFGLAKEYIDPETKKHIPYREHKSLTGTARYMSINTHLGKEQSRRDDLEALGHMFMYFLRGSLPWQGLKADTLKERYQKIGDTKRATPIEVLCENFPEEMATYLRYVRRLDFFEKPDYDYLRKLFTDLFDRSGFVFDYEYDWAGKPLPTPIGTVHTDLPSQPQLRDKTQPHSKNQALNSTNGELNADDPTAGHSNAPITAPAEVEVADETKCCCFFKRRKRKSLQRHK
Calcium/calmodulin-dependent protein kinase type II subunit delta (Homo sapiens), sequence (Q13557 whole entry, canonical isoform): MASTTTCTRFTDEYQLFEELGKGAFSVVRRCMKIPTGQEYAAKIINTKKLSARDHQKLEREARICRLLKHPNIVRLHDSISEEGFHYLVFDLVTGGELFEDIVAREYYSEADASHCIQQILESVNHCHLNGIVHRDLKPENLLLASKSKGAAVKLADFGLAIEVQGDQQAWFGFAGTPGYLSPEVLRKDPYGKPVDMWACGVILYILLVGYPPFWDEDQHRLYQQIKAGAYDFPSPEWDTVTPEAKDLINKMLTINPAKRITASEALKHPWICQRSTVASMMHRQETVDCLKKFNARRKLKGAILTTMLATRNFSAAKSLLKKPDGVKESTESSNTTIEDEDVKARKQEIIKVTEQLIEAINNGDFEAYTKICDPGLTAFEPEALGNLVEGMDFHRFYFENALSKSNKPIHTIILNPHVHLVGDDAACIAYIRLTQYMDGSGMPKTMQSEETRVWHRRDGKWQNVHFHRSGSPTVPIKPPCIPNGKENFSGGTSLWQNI
Calcium/calmodulin-dependent protein kinase type 1G (Homo sapiens), sequence (Q96NX5 whole entry): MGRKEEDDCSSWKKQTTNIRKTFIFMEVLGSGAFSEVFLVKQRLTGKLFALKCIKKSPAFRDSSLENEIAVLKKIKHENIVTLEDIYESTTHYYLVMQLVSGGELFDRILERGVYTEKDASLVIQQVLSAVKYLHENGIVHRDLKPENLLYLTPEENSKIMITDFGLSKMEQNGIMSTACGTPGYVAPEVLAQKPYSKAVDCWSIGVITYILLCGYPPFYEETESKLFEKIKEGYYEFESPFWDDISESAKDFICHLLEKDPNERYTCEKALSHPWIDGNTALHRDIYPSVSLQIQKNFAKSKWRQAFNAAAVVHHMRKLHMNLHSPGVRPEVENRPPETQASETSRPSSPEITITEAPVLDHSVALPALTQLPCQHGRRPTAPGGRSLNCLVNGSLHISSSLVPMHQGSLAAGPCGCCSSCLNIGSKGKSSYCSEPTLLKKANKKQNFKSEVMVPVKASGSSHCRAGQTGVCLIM

Row | Structure (SMILES) | ΔTm [1] [°C] | ΔTm [2] [°C] | ΔTm [3] [°C] | ΔTm [4] [°C] | ΔTm [5] [°C] | ΔTm [6] [°C] | ΔTm [8] [°C] | ΔTm [9] [°C] | ΔTm [10] [°C] | ΔTm [11] [°C] | ΔTm [12] [°C] | ΔTm [13] [°C] | ΔTm [14] [°C] | ΔTm [15] [°C] | ΔTm [16] [°C] | ΔTm [18] [°C] | ΔTm [19] [°C] | ΔTm [20] [°C] | ΔTm [21] [°C] | ΔTm [22] [°C] | other results
1 | CC(C)c1nn(-c2c(Cl)cccc2Cl)c2nc(Cc3ccc(OCCO)cc3)[nH]c(=O)c12 | 1.3 | -0.1 | -0.5 | 0.4 | 0.2 | 1.5 | -0.6 | -1.2 | 3.6 | -0.3 | 0.3 | 1.7 | 0.3 | 0.4 | 1.4 | 0 | 0.1 | 0.2 | 3.6 | 0.6 | ΔTm [7]: 3.5 °C; ΔTm [17]: 0.5 °C; ΔTm [23]: 0.5 °C; ΔTm [24]: 0.6 °C; ΔTm [25]: 0.1 °C
2 | CC(C)[C@H](CO)Nc1nc(Nc2cc(N)cc(Cl)c2)c2ncn(C(C)C)c2n1 [AMINOPURVALANOL] | 4.5 | -0.1 | 3.5 | 0.5 | 0.7 | 4.8 | 8.1 | 2 | 7.5 | 1.8 | 0.6 | 3.3 | 0.5 | 0.1 | 1 | 1.2 | 0.7 | 0.1 | 5.5 | 6.1 | ΔTm [7]: 3.4 °C; ΔTm [24]: 0.3 °C; ΔTm [25]: 2 °C
3 | O=C(Nc1cccc(Nc2nccc(Nc3cccc(C(F)(F)F)c3)n2)c1)C1CC1 [ANILINOPYRIMIDINE1] | 0.6 | 6.9 | 4.1 | 0.3 | 1.1 | 1.3 | 3.2 | 9.3 | 3.8 | 6.5 | 0.4 | 2 | 3.8 | 0.8 | 3.3 | 7.3 | 2.8 | 2.6 | 1.9 | 0.6 | ΔTm [7]: 5.7 °C; ΔTm [17]: 0.8 °C; ΔTm [23]: 0.7 °C; ΔTm [24]: 0.6 °C; ΔTm [25]: 0.7 °C
4 | COc1ccc(Cl)cc1NC(=O)Nc1cc(C)nc2ccccc12 | 0.6 | 1 | 1.4 | -0.5 | 0 | 0.3 | 0.5 | 0.1 | 2.4 | -0.1 | 0.1 | 0.4 | 4.4 | 0.2 | 0.9 | -1.1 | 2.2 | 0.5 | 0.5 | -0.1 | ΔTm [7]: 0.4 °C; ΔTm [17]: 0.4 °C; ΔTm [24]: 0.9 °C; ΔTm [25]: 1.4 °C
5 | COc1ccc2c(c1)/C(=C/c1cnc[nH]1)C(=O)N2 [SU-9516] | 3.2 | 1.7 | 3.3 | 1 | 8.7 | 1.2 | 3.3 | 0.8 | 1.6 | 0.7 | 3.4 | 2.8 | 0.4 | 1.7 | 0.7 | 1.3 | 0.5 | 8.4 | 3.4 | 1.3 | ΔTm [26]: 0 °C; ΔTm [17]: 3 °C; ΔTm [23]: 2 °C; ΔTm [24]: -0.5 °C; ΔTm [25]: 1 °C
6 | CN1CCc2[nH]c(=S)c(C#N)c(-c3cccs3)c2C1 | 6.2 | -0.3 | 5.9 | 0.8 | 4 | 1 | 4.1 | 7.8 | 5.3 | 5.2 | 0.5 | 3.8 | 2.5 | -0.2 | 2.4 | 1.4 | 1.3 | -0.1 | 2.4 | -0.2 | ΔTm [7]: 0.9 °C; ΔTm [17]: 0.1 °C; ΔTm [24]: -0.8 °C; ΔTm [25]: 0.8 °C
7 | O=C1Cc2c([nH]c3ccc(Br)cc23)-c2ccccc2N1 [KENPAULLONE] | 0.1 | 1.2 | 1.7 | 0 | 10.5 | 1.3 | 2 | 5.8 | 6.1 | 0 | 1.1 | 2 | 0.3 | -0.3 | 0.1 | 2.6 | 1 | 1.7 | 1.7 | 0.8 | ΔTm [26]: -2 °C; ΔTm [17]: 0.7 °C; ΔTm [23]: 1.5 °C; ΔTm [24]: 0.2 °C; ΔTm [25]: 0.3 °C
8 | Oc1cc(O)cc(/C=C/c2ccc(O)c(O)c2)c1 [PICEATANNOL] | 0.6 | 2 | 1.6 | 0.8 | 0.8 | 1.1 | 0 | -0.5 | 1.9 | 0.2 | 1.7 | 0.5 | 0.5 | 0.2 | 2.3 | 3.2 | 1.1 | 2 | 0.9 | 0.7 | ΔTm [26]: 0 °C; ΔTm [17]: 0.3 °C; ΔTm [23]: 1 °C; ΔTm [24]: 0.1 °C; ΔTm [25]: 0 °C
9 | O=C1Nc2ccccc2/C1=C\c1ccc[nH]1 | 2.1 | 0.8 | 3.1 | 1.2 | 3.3 | 1.7 | 1.7 | -0.6 | 4.1 | 1.6 | 2.7 | 4.7 | 1.9 | 2.4 | -0.6 | 0.1 | 1.3 | 8.5 | 2.7 | 0.5 | ΔTm [26]: -0.5 °C; ΔTm [17]: 2.6 °C; ΔTm [23]: 3.9 °C; ΔTm [24]: -0.5 °C; ΔTm [25]: 1.4 °C
